Assay [1] deals with phosphorylation of JNK in HEK293 cells stably transfected with doxycycline-inducible Flag-tagged full length DLK. Nature of the assay: pJNK Cell based assay. The following applies: Homo sapiens; HEK293 cells with doxycycline-induced DLK, 5.5 hours compound treatment, pJNK mean intensity by imaging; read-out: p-JNK 293 IC50. Here is the method:
pJNK Cell based assay:HEK293 cells stably transfected with doxycycline-inducible N-terminally Flag-tagged full length DLK were plated at density of 7500 cells/well (40 μL) in 384-well Greiner bio-one μclear plate coated with Poly-D-Lysine. The cells were incubated at 37° C. in DMEM (Dulbecco's Modified Eagle Medium) media containing 10% FBS and 2 mM L-Glutamine for 20-24 hours. 5 μL of 60 μM doxycycline was added to the cells to initiate DLK expression for 20 hours at 37° C. No doxycycline was added for the negative control wells. 5 μL of compounds of formula I in various concentrations in DMEM were added to the cells and the compound treated cell culture was incubated at 37° C. for 5.5 hours prior to fixation with addition of 50 μL 4% paraformaldehyde. The wells were washed with 40 μL PBS wash twice followed by permeabilization with 0.1% Triton X-100. The cells were washed with 40 μL PBS wash twice again prior to incubation in 20 μL SuperBlock (Thermo Scientific) for 1 hour at ambient temperature. The primary antibodies (1:3000 mouse anti-Flag and 1:1000 rabbit anti-pJNK in SuperBlock) were incubated with the fixed cells overnight at 4° C. The cells were washed with 40 μL PBS twice before the addition of secondary antibodies (Anti-mouse labeled with AlexaFluor555 and anti-rabbit labeled with AlexaFluor488 in 1:2000 dilution in SuperBlock). The secondary antibodies were incubated at ambient temperature for 2 hours and were protected from light. The cells were washed with 40 μL PBS before the addition of 20 μL Hoechst 33342 (1:5000 in PBS). The plate was sealed and stored at 4° C. in the dark until imaging analyses on Opera High Content Screening System (Evotec). Three data points were reported: pJNK (mean intensity inside the search stencil), DLK (mean intensity of the 1% brightest pixels inside the search stencil) and nuclear area.

The target in assay [2] is DLK kinase (N-terminally GST-tagged DLK, catalytic domain amino acid 1-520) (Homo sapiens (Human), UniProt Q12852). The experiment in a line: DLK TR-FRET assay. In kind it is biochemical. Particulars: 30 μM ATP, MKK4 K131M substrate, read-out: DLK HTRF (Ki). An outline of the steps:
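5 nM GST-tagged DLK catalytic domain (aa 1-520) with 40 nM HIS-MKK4 K131M substrate and 30 μM ATP in HEPES pH 7.5/MgCl2 buffer. Compounds tested in 1:3 serial dilution from 20 uM, 60 min at ambient temperature. EDTA quench, then 3 h with Eu-anti-phospho-MKK4 and D2-anti-HIS before TR-FRET read (665/615 nm).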

This note sets out measurements from patent US9868720B2 (Genentech, Inc., priority 2013, dated 2018).

pIC50, pKi: −log10 of the molar value.

DLK kinase (N-terminally GST-tagged DLK, catalytic domain amino acid 1-520), sequence (Q12852 1-520): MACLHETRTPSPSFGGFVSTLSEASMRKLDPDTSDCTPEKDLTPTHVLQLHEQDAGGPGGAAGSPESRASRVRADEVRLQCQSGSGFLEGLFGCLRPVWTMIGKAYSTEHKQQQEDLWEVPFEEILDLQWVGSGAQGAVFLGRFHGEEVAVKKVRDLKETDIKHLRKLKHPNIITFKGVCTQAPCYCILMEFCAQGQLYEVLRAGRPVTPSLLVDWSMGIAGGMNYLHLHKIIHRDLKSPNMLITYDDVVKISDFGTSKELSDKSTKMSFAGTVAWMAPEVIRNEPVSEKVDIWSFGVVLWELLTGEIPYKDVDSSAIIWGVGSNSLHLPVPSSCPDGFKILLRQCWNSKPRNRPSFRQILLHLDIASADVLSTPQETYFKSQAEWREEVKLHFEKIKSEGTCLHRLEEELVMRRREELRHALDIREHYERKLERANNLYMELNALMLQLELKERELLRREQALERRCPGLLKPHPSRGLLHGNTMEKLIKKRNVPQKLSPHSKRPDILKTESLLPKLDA

As to `CC(=O)N1CCC(C#N)(c2cc(Nc3cc(C(F)(F)F)ccn3)nc(N3CCC(F)(F)C3)n2)CC1` [1-Acetyl-4-[2-(3,3-difluoro-pyrrolidin-1-yl)-6-(4-trifluoromethyl-pyridin-2-ylamino)-pyrimidin-4-yl]-piperidine-4-carbonitrile], the pIC50 in assay [1] is 6.22.

For `N#CC1(C(=O)N2CCC(c3cc(Nc4cc(C(F)(F)F)ccn4)nc(N4CCC(F)(F)C4)n3)C2)CC1` (centres unmarked) [1-{3-[2-(3,3-Difluoro-pyrrolidin-1-yl)-6-(4-trifluoromethyl-pyridin-2-ylamino)-pyrimidin-4-yl]-pyrrolidine-1-carbonyl}-cyclopropanecarbonitrile], the pIC50 in assay [1] was 6.23.

Regarding `CN(CCO)c1nc(Nc2cc(C(F)(F)F)ccn2)cc(C2CCNC2)n1` (centres unmarked) [2-{Methyl-[4-pyrrolidin-3-yl-6-(4-trifluoromethyl-pyridin-2-ylamino)-pyrimidin-2-yl]-amino}-ethanol], the pIC50 in assay [1] is 6.71.

Consider `FC(F)(F)c1ccnc(Nc2cc(C3CCCNC3)nc(-c3ccccc3)n2)c1` (centres unmarked) [(2-Phenyl-6-piperidin-3-yl-pyrimidin-4-yl)-(4-trifluoromethyl-pyridin-2-yl)-amine], for which, in assay [1], the pIC50 is 6.00.

Turning to `FC1(F)CCN(c2nc(Nc3cc(Cl)ccn3)cc(C3CCNCC3)n2)C1` [(4-Chloro-pyridin-2-yl)-[2-(3,3-difluoro-pyrrolidin-1-yl)-6-piperidin-4-yl-pyrimidin-4-yl]-amine], the pIC50 in assay [1] is 6.95.

As for `FC1(F)CCN(c2nc(Nc3cc(C4CCC4)ccn3)cc(C3CCNCC3)n2)C1` [(4-Cyclobutyl-pyridin-2-yl)-[2-(3,3-difluoro-pyrrolidin-1-yl)-6-piperidin-4-yl-pyrimidin-4-yl]-amine], in assay [1], the pIC50 is 6.70.

With `FC(F)(F)c1ccnc(Nc2cc(C3CCCN(C4COC4)C3)nc(C3CCCC3)n2)c1` (centres unmarked) [Example 391, [2-Cyclopentyl-6-(1-oxetan-3-yl-piperidin-3-yl)-pyrimidin-4-yl]-(4-trifluoromethyl-pyridin-2-yl)-amine], the pKi in assay [2] is 8.05.

With `O=C1CC(c2cc(Nc3cc(C(F)(F)F)ccn3)nc(C3CCOC3)n2)CCN1` (centres unmarked) [Example 392, 4-[2-(Tetrahydro-furan-3-yl)-6-(4-trifluoromethyl-pyridin-2-ylamino)-pyrimidin-4-yl]-piperidin-2-one], in assay [2], the pKi is 6.92.

Regarding `CC(C)c1nc(Nc2cc(C(F)(F)F)ccn2)cc(C2CN(C3COC3)C2)n1` [Example 399, [2-Isopropyl-6-(1-oxetan 3-yl-azetidin-3-yl)-pyrimidin-4-yl]-(4-trifluoromethyl-pyridin-2-yl)-amine], the pKi in assay [2] was 6.55.

For `CS(=O)(=O)N1CCCC(c2cc(Nc3cc(C(F)(F)F)ccn3)nc(C3CCOC3)n2)C1` (centres unmarked) [Example 401, [6-(1-Methanesulfonyl-piperidin-3-yl)-2-(tetrahydro-furan-3-yl)-pyrimidin-4-yl]-(4-trifluoromethyl-pyridin-2-yl)-amine], in assay [2], the pKi is 6.91.

For `CC1CCCN1c1nc(Nc2cc(C(F)(F)F)ccn2)cc(C2CCN(C(=O)Cn3ccnc3)C2)n1` (centres unmarked) [Example 402, 2-Imidazol-1-yl-1-{3-[2-(2-methyl-pyrrolidin-1-yl)-6-(4-trifluoromethyl-pyridin-2-ylamino)-pyrimidin-4-yl]-pyrrolidin-1-yl}-ethanone], the pKi in assay [2] is 8.80.

As to `FC1(F)CCN(c2nc(Nc3cc(C(F)(F)F)ccn3)cc(C3CCN(Cc4cn[nH]c4)C3)n2)C1` (centres unmarked) [Example 404, {2-(3,3-Difluoro-pyrrolidin-1-yl)-6-[1-(1H-pyrazol-4-ylmethyl)-pyrrolidin-3-yl]-pyrimidin-4-yl}-(4-trifluoromethyl-pyridin-2-yl)-amine], in assay [2], the pKi was 8.31.

For the compound `FC(F)(F)c1ccnc(Nc2cc(C3CCCN(C4COC4)C3)nc(C3CCC3)n2)c1` (centres unmarked) [Example 407, [2-Cyclobutyl-6-(1-oxetan-3-yl-piperidin-3-yl)-pyrimidin-4-yl]-(4-trifluoro-methyl-pyridin-2-yl)-amine], in assay [2], the pKi is 7.59.

With `CC(C)c1nc(Nc2cc(C(F)(F)F)ccn2)cc(C2CCNC(=O)C2)n1` (centres unmarked) [Example 408, 4-[2-Isopropyl-6-(4-trifluoro-methyl-pyridin-2-ylamino)-pyrimidin-4-yl]-piperidin-2-one], the pKi in assay [2] is 7.01.

Turning to `CC1CCCN1c1nc(Nc2cc(C(F)(F)F)ccn2)cc(C2CCNC(=O)C2)n1` (centres unmarked) [Example 412, 4-[2-(2-Methyl-pyrrolidin-1-yl)-6-(4-trifluoromethyl-pyridin-2-ylamino)-pyrimidin-4-yl]-piperidin-2-one], in assay [2], the pKi was 7.32.

With `Cn1cc(-c2nc(Nc3cc(C(F)(F)F)ccn3)cc(C3CCN(CC4CCOCC4)C3)n2)cn1` (centres unmarked) [Example 423, {2-(1-Methyl-1H-pyrazol-4-yl)-6-[1-(tetrahydro-pyran-4-ylmethyl)-pyrrolidin-3-yl]-pyrimidin-4-yl}-(4-trifluoromethyl-pyridin-2-yl)-amine], in assay [2], the pKi was 8.28.

As for `CC(=O)N1CCC(c2cc(Nc3cc(C(F)(F)F)ccn3)nc(-c3cnn(C)c3)n2)CC1` [Example 424, 1-{4-[2-(1-Methyl-1H-pyrazol-4-yl)-6-(4-trifluoromethyl-pyridin-2-ylamino)-pyrimidin-4-yl]-piperidin-1-yl}-ethanone], the pKi in assay [2] was 7.91.

`COc1cc(C)ccc1C(=O)N1CCCC(c2cc(Nc3cc(C)ccn3)nc(N3CCCC3C)n2)C1` (centres unmarked) [Example 425, (2-Methoxy-4-methyl-phenyl)-{3-[6-(4-methyl-pyridin-2-ylamino)-2-(2-methyl-pyrrolidin-1-yl)-pyrimidin-4-yl]-piperidin-1-yl}-methanone]: in assay [2], the pKi was 9.77.

`COc1cc(C)ccc1C(=O)N1CCCC(c2cc(Nc3cc(C)ccn3)nc(N3CCC(F)(F)C3)n2)C1` (centres unmarked) [Example 426, {3-[2-(3,3-Difluoro-pyrrolidin-1-yl)-6-(4-methyl-pyridin-2-ylamino)-pyrimidin-4-yl]-piperidin-1-yl}-(2-methoxy-4-methyl-phenyl)-methanone]: the pKi in assay [2] is 9.30.

Consider `FC1(F)CCN(c2nc(Nc3cc(Cl)ccn3)cc(C3CCN(C4COC4)CC3)n2)C1` [Example 427, N-(4-chloropyridin-2-yl)-2-(3,3-difluoropyrrolidin-1-yl)-6-(1-(oxetan-3-yl)piperidin-4-yl)pyrimidin-4-amine], for which, in assay [2], the negative logarithm of the Ki (pKi) is 7.80.

For the compound `FC(F)(F)c1ccnc(Nc2cc(C3CCOCC3)nc(N3CC4CC3CO4)n2)c1` (centres unmarked) [[2-(2-Oxa-5-aza-bicyclo[2.2.1]hept-5-yl)-6-(tetrahydro-pyran-4-yl)-pyrimidin-4-yl]-(4-trifluoromethyl-pyridin-2-yl)-amine], in assay [1], the pIC50 is 6.57.

`FC(F)(F)c1ccnc(Nc2cc(C3CCNCC3)nc(N3CC4CC3CO4)n2)c1` (centres unmarked) [[2-(2-Oxa-5-aza-bicyclo[2.2.1]hept-5-yl)-6-piperidin-4-yl-pyrimidin-4-yl]-(4-trifluoromethyl-pyridin-2-yl)-amine]: the pIC50 in assay [1] is 6.41.

On to `FC(F)(F)c1ccnc(Nc2cc(C3CCOCC3)nc(N3CCc4nc[nH]c4C3)n2)c1` [[2-(3,4,6,7-Tetrahydro-imidazo[4,5-c]pyridin-5-yl)-6-(tetrahydro-pyran-4-yl)-pyrimidin-4-yl]-(4-trifluoromethyl-pyridin-2-yl)-amine], for which the pIC50 in assay [1] is 6.62.

Take `Cc1nccc(C2CCN(c3nc(Nc4cc(C(F)(F)F)ccn4)cc(C4CCOCC4)n3)C2)n1` (centres unmarked) [[2-[3-(2-Methyl-pyrimidin-4-yl)-pyrrolidin-1-yl]-6-(tetrahydro-pyran-4-yl)-pyrimidin-4-yl]-(4-trifluoromethyl-pyridin-2-yl)-amine]: in assay [1], the pIC50 was 6.64.

In the case of `Cc1c[nH]c(CN2CCC(c3cc(Nc4cc(C(F)(F)F)ccn4)nc(N4CC(F)(F)C4)n3)C2)n1` (centres unmarked) [{2-(3,3-Difluoro-azetidin-1-yl)-6-[1-(4-methyl-1H-imidazol-2-ylmethyl)-pyrrolidin-3-yl]-pyrimidin-4-yl}-(4-trifluoromethyl-pyridin-2-yl)-amine], the pIC50 in assay [1] is 6.38.

Take `Cc1ccnc(Nc2cc(C3CCCN(C(=O)c4ccccc4)C3)nc(N3CCCC3)n2)c1` (centres unmarked) [{3-[6-(4-Methyl-pyridin-2-ylamino)-2-pyrrolidin-1-yl-pyrimidin-4-yl]-piperidin-1-yl}-phenyl-methanone]: the pIC50 in assay [1] is 7.11.

A word on the pIC50: it is the IC50 on a negative log10 scale, so that one unit is a factor of ten. The pKi is the Ki on a negative log10 scale, so that one unit is a factor of ten.
